In patent US8268827B2, “Pyridazinone derivatives as PARP inhibitors” (Istituto di Ricerche di Biologia Molecolare P. Angeletti …, priority 2007, dated 2012):
Counter-ions that a name gives are not always drawn. Like-named read-outs stand apart in the source and are kept apart here.

Tests used:
PARP-1 [1] = target: T1, PARP-1 (Homo sapiens, UniProt P09874); assay: PARP-1 TCA assay (inhibitory activity on human PARP-1); assay type: biochemical; details: human PARP-1, TCA assay
T1 construct: purchased Trevigen 4668-500-01
T1 sequence (P09874 whole entry): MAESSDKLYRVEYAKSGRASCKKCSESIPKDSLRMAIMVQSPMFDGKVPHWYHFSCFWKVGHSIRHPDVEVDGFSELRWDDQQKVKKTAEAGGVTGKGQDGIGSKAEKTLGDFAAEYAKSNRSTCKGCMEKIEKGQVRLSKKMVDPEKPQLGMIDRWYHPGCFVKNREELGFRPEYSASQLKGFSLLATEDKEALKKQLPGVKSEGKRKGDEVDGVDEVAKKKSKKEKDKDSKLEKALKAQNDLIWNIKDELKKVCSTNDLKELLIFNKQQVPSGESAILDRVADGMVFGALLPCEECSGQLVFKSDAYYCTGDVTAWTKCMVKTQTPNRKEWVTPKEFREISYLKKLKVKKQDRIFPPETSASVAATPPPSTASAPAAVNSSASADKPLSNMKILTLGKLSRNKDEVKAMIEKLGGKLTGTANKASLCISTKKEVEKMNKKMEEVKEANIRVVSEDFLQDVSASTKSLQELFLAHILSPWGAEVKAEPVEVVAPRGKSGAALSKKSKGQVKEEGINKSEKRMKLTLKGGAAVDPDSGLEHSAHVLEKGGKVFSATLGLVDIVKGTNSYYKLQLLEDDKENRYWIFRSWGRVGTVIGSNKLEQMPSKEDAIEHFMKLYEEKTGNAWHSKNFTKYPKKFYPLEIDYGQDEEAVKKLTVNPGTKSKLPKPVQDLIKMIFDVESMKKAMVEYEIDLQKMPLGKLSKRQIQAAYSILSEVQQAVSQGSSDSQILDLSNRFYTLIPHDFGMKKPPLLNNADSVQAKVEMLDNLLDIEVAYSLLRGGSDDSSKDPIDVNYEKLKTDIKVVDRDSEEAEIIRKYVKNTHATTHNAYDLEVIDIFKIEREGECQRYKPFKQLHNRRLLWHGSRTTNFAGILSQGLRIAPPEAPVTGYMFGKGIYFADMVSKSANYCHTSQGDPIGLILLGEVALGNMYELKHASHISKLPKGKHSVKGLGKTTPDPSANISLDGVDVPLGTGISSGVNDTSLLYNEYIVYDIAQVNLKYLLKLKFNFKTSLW
Description: Inhibitory Activity on Human PARP-1
The study was designed to determine the potency of compounds for inhibiting poly(ADP-ribosylation) by hPARP1 upon presentation of a nicked DNA (i.e. Activated Calf Thymus). The IC50 was determined in a TCA assay looking at the incorporation of [^3H]-NAD into the growing Poly-ADP-ribose (PAR) polymers and detection of the radioactivity incorporated in a polymer by scintillation counting.
A 96 wells polypropylene microplate was prepared with serial dilutions of compounds (10 point over a 0.1 nM-50 nM concentration range 5% DMSO, 5 uL) or 5% DMSO. The enzymatic reaction was conducted in the presence of 25 mM Tris-HCl pH8.0, 1 mM MgCl2, 50 mM KCl, 1 mM Spermine, 0.01% Nonidet P-40, 1 mM DTT, 1 ug/ml activated Calf Thymus DNA (Amersham Biosciences 27-4575) and 1 nM of human PARP-1 enzyme (Trevigen 4668-500-01). The reaction was initiated by adding 1 ug/ml Activated Calf Thymus DNA (Amersham Biosciences 27-4575), 0.4 ul (2.2×10^5DPM) of [^3H]-NAD (250uCi/ml, Perkin Elmer NET-443H) and 1.5 uM NAD (Sigma #N-1511) in a total reaction volume of 50 ul. After 2 hours incubation at room temperature, the reaction was stopped by the addition of TCA (50 uL, 20%) and NaPPi (20 mM) and incubated for 10 min over ice. The resulting precipitate was filtered on Unifilter GF/B microplate (Perkin Elmer) and washed four times with 2.5% TCA using Harvester Filtermate 196 (Perkin Elmer). After addition of 50 ul of Microscint 20 (Perkin Elmer) the amount of radioactivity incorporated into the PARP polymers was read for each well on Perkin Elmer Top Count. IC50 was calculated using 4P logistic fitting with ADA software based on the residual enzyme activity in the presence of increasing concentrations of compounds.

[2] = system: BRCA-1 silenced HeLa cells (HeLa shBRCA1-GFP); assay: Proliferation assay in BRCA-1 silenced HeLa cells; assay type: cell-based; details: Homo sapiens; for inhibition at 5 µM: read-out: % inh @ 5 uM (BRCA1-)
How it was run: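 Antiproliferative effect was read by Celltiter Blue fluorescence after 168 h of compound treatment at 37° C., 5% CO2. Cells were matched HeLa pairs, BRCA1-shRNA (>80% silenced, GFP) versus non-shRNA vector control, in DMEM with 10% FCS.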

[3] = system: ischemia and reperfusion of the heart; details: rabbits, cited from earlier work
PARP-1 [4] = target: T1, PARP-1; assay: PARP-1 SPA assay; assay type: biochemical
How it was run: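 PARP-1 reaction in Tris pH 8 buffer with MgCl2, spermine, KCl, activated calf thymus DNA and a mix of [3H]-NAD, NAD and biotinylated NAD, 2 h at RT. Stopped with EDTA/streptavidin SPA beads and poly(ADP-ribose) incorporation counted by scintillation.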

[5] = BRCA-1 silenced HeLa cells, read-out: BRCA1- CC50
[6] = BRCA1 silenced HeLa cells, 168 hours, read-out: CC50 in the BRCA1 silenced HeLa cells

Row | IC50 (PARP-1 [4]) [nM] | Structure (SMILES) | CC50 [2, 6] [nM] | also measured
1 | < 5 | Cc1c(Cc2ccc(F)c(C(=O)N3CCN(C4CCC(F)C4)C(=O)C3)c2)n[nH]c(=O)c1C (stereo not drawn) [Example 150, 6-(4-Fluoro-3-{[4-(3-fluorocyclopentyl)-3-oxopiperazin-1-yl]carbonyl}benzyl)-4,5-dimethylpyridazin-3(2H)-one] | 50 to 500 | –
2 | 5 to 25 | COCCN1CCN(C(=O)c2cc(Cc3n[nH]c(=O)c(C)c3C)ccc2F)CC1=O [Example 170, 6-(4-Fluoro-3-{[4-(2-methoxyethyl)-3-oxopiperazin-1-yl]carbonyl}benzyl)-4,5-dimethylpyridazin-3(2H)-one] | < 5000 | –
3 | < 5 | CCOCCN1CCN(C(=O)c2cc(Cc3n[nH]c(=O)c(C)c3C)ccc2F)CC1=O [Example 171, 6-(3-{[4-(2-Ethoxyethyl)-3-oxopiperazin-1-yl]carbonyl}-4-fluorobenzyl)-4,5-dimethylpyridazin-3(2H)-one] | < 5000 | –
4 | 5 to 25 | Cc1c(Cc2ccc(F)c(C(=O)N3CCN(CCOC(C)C)C(=O)C3)c2)n[nH]c(=O)c1C [Example 172, 6-(4-Fluoro-3-{[4-(2-isopropoxyethyl)-3-oxopiperazin-1-yl]carbonyl}benzyl)-4,5-dimethylpyridazin-3(2H)-one] | < 5000 | –
5 | 5 to 25 | Cc1c(Cc2ccc(F)c(C(=O)N3CC(=O)N(C4CCC4)[C@@H](C)C3)c2)n[nH]c(=O)c1C [Example 176, 6-(3-{[(3S)-4-Cyclobutyl-3-methyl-5-oxopiperazin-1-yl]carbonyl}-4-fluorobenzyl)-4,5-dimethylpyridazin-3(2H)-one] | < 5000 | –
6 | 5 to 25 | CC[C@H]1CN(C(=O)c2cc(Cc3n[nH]c(=O)c(C)c3C)ccc2F)CC(=O)N1C1CCC1 [Example 181, 6-(3-{[(3S)-4-Cyclobutyl-3-ethyl-5-oxopiperazin-1-yl]carbonyl}-4-fluorobenzyl)-4,5-dimethylpyridazin-3(2H)-one] | < 5000 | –
7 | 25 to 150 | Cc1c(Cc2ccc(F)c(C(=O)N3CC(=O)N(C4CCCC4)C(CC(C)C)C3)c2)n[nH]c(=O)c1C (stereo not drawn) [Example 185, 6-{3-[(4-Cyclopentyl-3-isobutyl-5-oxopiperazin-1-yl)carbonyl]-4-fluorobenzyl}-4,5-dimethylpyridazin-3(2H)-one] | < 5000 | –
8 | 5 to 25 | Cc1c(Cc2ccc(F)c(C(=O)N3CC(=O)N(C4CCCC4)[C@H](C(C)C)C3)c2)n[nH]c(=O)c1C [Example 207, 6-(3-{[(3R)-4-Cyclopentyl-3-isopropyl-5-oxopiperazin-1-yl]carbonyl}-4-fluorobenzyl)-4,5-dimethylpyridazin-3(2H)-one] | < 5000 | –

Further lines, the compound ahead of its results:

Row | Structure (SMILES) | IC50 (PARP-1 [4]) [nM] | CC50 [2, 6] [nM] | also measured
9 | Cc1c(Cc2ccc(F)c(C(=O)N3CCN(c4ccc(F)cc4)CC3)c2)n[nH]c(=O)c1C | – | – | IC50 (PARP-1 [1]): 20 nM; inhibition at 5 µM ([2]; BRCA-1 silenced HeLa cells): 52%
10 | Cc1c(Cc2ccc(F)c(C(=O)N3CC=C(c4ccc(F)cc4)CC3)c2)n[nH]c(=O)c1C | – | – | IC50 (PARP-1 [1]): 20 nM; inhibition at 5 µM ([2]; BRCA-1 silenced HeLa cells): 45%
11 | Cc1c(Cc2ccc(F)c(C(=O)N3CCN(C4CCCCC4)CC3)c2)n[nH]c(=O)c1C | – | – | IC50 (PARP-1 [1]): 7.4 nM; CC50 [2, 5]: 400 nM
12 | Oc1cccc2c(O)nccc12 [1,5-dihydroxyisoquinoline] | – | – | reduction in infarct size ([3]; single injection 1 mg/kg): 38-48%
13 | NC(=O)c1cccc(N)c1 [3-amino-benzamide] | – | – | reduction in infarct size in the heart ([3]; single injection 10 mg/kg, one minute before occlusion or one minute before reperfusion): 32-42%
14 | Cc1c(Cc2ccc(F)c(C(=O)N3CCN(C4CCCOC4)C(=O)C3)c2)n[nH]c(=O)c1C(F)(F)F (stereo not drawn) [Example 141, 3-(4-Fluoro-3-{[3-oxo-4-(tetrahydro-2H-pyran-3-yl)piperazin-1-yl]carbonyl}benzyl)-4-methyl-6-oxo-5-(trifluoromethyl)-1,6-dihydropyridazin-1-ium trifluoroacetate] | 5 to 25 | < 50 | –
15 | Cc1c(Cc2ccc(F)c(C(=O)N3CCN(C4CCOC4)C(=O)C3)c2)n[nH]c(=O)c1C(F)(F)F (stereo not drawn) [Example 142, 3-(4-Fluoro-3-{[3-oxo-4-(tetrahydrofuran-3-yl)piperazin-1-yl]carbonyl}benzyl)-4-methyl-6-oxo-5-(trifluoromethyl)-1,6-dihydropyridazin-1-ium trifluoroacetate] | < 5 | < 50 | –
16 | CCc1cc(Cc2ccc(F)c(C(=O)N3CCN([C@H]4CCCOC4)C(=O)C3)c2)n[nH]c1=O [Example 144, 4-ethyl-6-[4-fluoro-3-({3-oxo-4-[(3S)-tetrahydro-2H-pyran-3-yl]piperazin-1-yl}carbonyl)benzyl]pyridazin-3(2H)-one] | < 5 | < 5000 | –
17 | CCc1cc(Cc2ccc(F)c(C(=O)N3CCN([C@@H]4CCCOC4)C(=O)C3)c2)n[nH]c1=O [Example 145, 4-ethyl-6-[4-fluoro-3-({3-oxo-4-[(3R)-tetrahydro-2H-pyran-3-yl]piperazin-1-yl}carbonyl)benzyl]pyridazin-3(2H)-one] | 5 to 25 | 50 to 500 | –
18 | Cc1c(Cc2ccc(F)c(C(=O)N3CCN(C4CCOCC4)C(=O)C3)c2)n[nH]c(=O)c1C(F)(F)F [Example 146, 3-(4-Fluoro-3-{[3-oxo-4-(tetrahydro-2H-pyran-4-yl)piperazin-1-yl]carbonyl}benzyl)-4-methyl-6-oxo-5-(trifluoromethyl)-1,6-dihydropyridazin-1-ium trifluoroacetate] | 5 to 25 | < 50 | –
19 | CCN1C(=O)CN(C(=O)c2cc(Cc3n[nH]c(=O)c(C(F)(F)F)c3C)ccc2F)CC1C (stereo not drawn) [Example 147, 3-{3-[(4-Ethyl-3-methyl-5-oxopiperazin-1-yl)carbonyl]-4-fluorobenzyl}-4-methyl-6-oxo-5-(trifluoromethyl)-1,6-dihydropyridazin-1-ium trifluoroacetate] | 5 to 25 | < 50 | –
20 | CCc1cc(Cc2ccc(F)c(C(=O)N3CCN(C4CCc5ccccc5C4)C(=O)C3)c2)n[nH]c1=O (stereo not drawn) [Example 148, 4-Ethyl-6-(4-fluoro-3-{[3-oxo-4-(1,2,3,4-tetrahydronaphthalen-2-yl)piperazin-1-yl]carbonyl}benzyl)pyridazin-3(2H)-one] | < 5 | 50 to 500 | –
21 | C[C@@H]1CN(C(=O)c2cc(Cc3cc(C(F)(F)F)c(=O)[nH]n3)ccc2F)CC(=O)N1C1CCCC1 [Example 151, 6-(3-{[(3R)-4-cyclopentyl-3-methyl-5-oxopiperazin-1-yl]carbonyl}-4-fluorobenzyl)-4-(trifluoromethyl)pyridazin-3(2H)-one] | 5 to 25 | < 50 | –
22 | C[C@H]1CN(C(=O)c2cc(Cc3cc(C(F)(F)F)c(=O)[nH]n3)ccc2F)CC(=O)N1C1CCCC1 [Example 152, 6-(3-{[(3S)-4-cyclopentyl-3-methyl-5-oxopiperazin-1-yl]carbonyl}-4-fluorobenzyl)-4-(trifluoromethyl)pyridazin-3(2H)-one] | 5 to 25 | < 5000 | –
23 | Cc1c(Cc2ccc(F)c(C(=O)N3CCN(c4ccccc4)C(=O)C3)c2)n[nH]c(=O)c1C [drawing 25] | – | – | IC50 (PARP-1 [1]): 1 nM; CC50 [2, 5]: 18 nM
24 | Cc1c(Cc2ccc(F)c(C(=O)N3CCN(c4ccc(F)cc4)C(=O)C3)c2)n[nH]c(=O)c1C [drawing 26] | – | – | IC50 (PARP-1 [1]): 0.87 nM; CC50 [2, 5]: 96 nM
25 | Cc1c(Cc2ccc(F)c(C(=O)N3CCN(C4CCCCC4)C(=O)C3)c2)n[nH]c(=O)c1C [drawing 29] | – | – | IC50 (PARP-1 [1]): 0.36 nM; CC50 [2, 5]: 7 nM
